# Reference: patent publication US20220235006A1, “PYRIDINE DERIVATIVES AS TMEM16A MODULATORS FOR USE IN THE TREATMENT OF RESPIRATORY CONDITIONS” (TMEM16A LIMITED, priority 2019, published 2022)
# Molecular target: T1, human TMEM16A (TMEM16Aabc variant) (Homo sapiens, UniProt Q5XXA6, DEL476-501)
# T1 sequence (Q5XXA6 with tags, fused parts or gaps isoform Q5XXA6-5 DEL539-564): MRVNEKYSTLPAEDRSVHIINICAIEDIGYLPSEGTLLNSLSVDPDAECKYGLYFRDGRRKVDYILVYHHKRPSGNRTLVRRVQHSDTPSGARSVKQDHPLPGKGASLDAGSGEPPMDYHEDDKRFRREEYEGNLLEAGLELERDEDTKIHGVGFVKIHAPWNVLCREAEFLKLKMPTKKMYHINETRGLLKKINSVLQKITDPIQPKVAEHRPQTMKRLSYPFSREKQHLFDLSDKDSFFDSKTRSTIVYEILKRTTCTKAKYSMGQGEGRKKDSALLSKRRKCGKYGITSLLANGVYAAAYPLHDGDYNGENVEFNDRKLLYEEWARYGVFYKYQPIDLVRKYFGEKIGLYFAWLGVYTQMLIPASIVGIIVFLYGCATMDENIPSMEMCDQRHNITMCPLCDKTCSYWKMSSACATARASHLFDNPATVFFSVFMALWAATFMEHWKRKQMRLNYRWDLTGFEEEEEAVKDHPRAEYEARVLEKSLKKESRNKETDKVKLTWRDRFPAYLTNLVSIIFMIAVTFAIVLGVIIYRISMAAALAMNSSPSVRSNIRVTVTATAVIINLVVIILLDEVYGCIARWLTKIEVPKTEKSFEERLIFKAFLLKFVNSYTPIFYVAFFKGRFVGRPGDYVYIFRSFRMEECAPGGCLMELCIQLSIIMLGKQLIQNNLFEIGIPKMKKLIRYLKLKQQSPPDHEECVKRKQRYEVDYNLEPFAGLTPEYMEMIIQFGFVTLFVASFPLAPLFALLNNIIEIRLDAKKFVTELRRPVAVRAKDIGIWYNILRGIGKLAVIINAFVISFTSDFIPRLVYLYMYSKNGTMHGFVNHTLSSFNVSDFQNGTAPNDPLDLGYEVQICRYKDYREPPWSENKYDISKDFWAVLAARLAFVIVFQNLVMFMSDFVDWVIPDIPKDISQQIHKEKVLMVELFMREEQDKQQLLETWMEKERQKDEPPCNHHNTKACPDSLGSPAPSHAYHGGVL
# Experiment: Automated whole-cell patch clamp (Qpatch) TMEM16A potentiator assay in recombinant FRT cells
# Assay type: cell-based
# Conditions: for activation at 3.33 µM: percentage increase of baseline TMEM16A current, minimum n = 2, read-out: % Potentiation @ 3.33 uM Avg; for EC50: minimum n = 2
# Protocol: Automated Whole-Cell Patch Clamp Assay to Detect TMEM16A Activity in Recombinant Cells
# Fisher rat thyroid (FRT) cells stably expressing human TMEM16A (TMEM16Aabc variant; Dr Luis Galietta, Insituto Giannina, Italy) were cultured in T-75 flasks in Hams F-12 media with Coon's modification (Sigma) supplemented with 10% (v/v) foetal bovine serum, penicillin-streptomycin (10,000 U/mL/10000 μg/mL), G-418 (750 μg/mL), L-glutamine (2 mM) and sodium bicarbonate solution (7.5% v/v). At ˜90% confluence cells were harvested for experiments by detachment with a 2:1 (v/v) mixture of Detachin (BMS Biotechnology) and 0.25% (w/v) trypsin-EDTA.
# FRT-TMEM16A cells were whole-cell patch clamped using an automated planar patch clamp system (Qpatch, Sophion). Briefly, once high resistance (GOhm) seals were established between the cells and the planar recording array the patch was ruptured using suction pulses to establish the whole-cell recording configuration of the patch clamp technique. The assay employed the following solutions (all reagents Sigma): Intracellular solution (mM): N-methyl-D-glucamine 130, CaCl2 18.2, MgCl2 1, HEPES 10, EGTA 10, BAPTA 20, Mg-ATP 2, pH 7.25, 325 mOsm with sucrose.
# Extracellular solution (mM): N-methyl-D-glucamine 130, CaCl2 2, MgCl2 1, HEPES 10, pH 7.3, 320 mOsm with sucrose.
# The intracellular solution buffers intracellular calcium at levels required to give ˜20% activation of the maximal TMEM16A mediated current (E020 for calcium ions). Cells were voltage clamped at a holding potential of −70mV and a combined voltage step (to +70 mV)/ramp (−90 my to +90 mV) was applied at 0.05 Hz. After a period of current stabilisation test compounds, solubilised in 100% (v/v) DMSO and subsequently diluted into extracellular solution, were applied to generate a cumulative concentration response curve. Each concentration of test compound was incubated for 5 minutes before addition of the next concentration. After the final concentration was tested a supramaximal concentration of either a known active positive modulator or the TMEM16A inhibitor, CaCCinhA01 (Del La Fuente et al, 2008) was added to define the upper and lower limits of the assay.
# Compound activity was quantified by measuring the increase in current upon compound addition and expressing this as a percentage increase of baseline TMEM16A current level.
# Peak TMEM16A current at +70 mV was plotted as a function of time over the assay period. Baseline current (IBL) was measured after a period of stabilisation. The increase in current for each compound addition was determined by taking the peak current during the incubation period and subtracting the current from the previous recording period and then expressing this as a percentage of the baseline current (% potentiation). For test compound concentration 1 in FIG. 1 this is:
# For each additional concentration tested the increase in current was determined by subtracting the current from the previous incubation period and normalising the baseline value—for test concentration 2 in FIG. 1 this is:
# The values for each test concentration were plotted as a cumulative function of concentration eg. for test concentration two this would be the sum of the peak changes measured during concentration one plus concentration two.
SMILES,activation at 3.33 µM [%],EC50 [nM]
"C#CC(C)(C)NC(=O)c1cc(NC(=O)Cc2cc(O)c(C(C)(C)CO)cc2F)ccn1 [Example 16, N-(1,1-Dimethylprop-2-ynyl)-4-[[2-[2-fluoro-5-hydroxy-4-(2-hydroxy-1,1-dimethyl-ethyl)phenyl]acetyl]amino]pyridine-2-carboxamide]",74.5,19
"N#CC1(c2cc(F)c(CC(=O)Nc3ccnc(C(=O)NC4(C(F)(F)F)CC4)c3)cc2O)CCOCC1 [Example 2.9, 4-[[2-[4-(4-Cyanotetrahydropyran-4-yl)-2-fluoro-5-hydroxy-phenyl]acetyl]amino]-N-[1-(trifluoromethyl)cyclopropyl]pyridine-2-carboxamide]",295,149
"CC(C)(CO)c1cc(F)c(CC(=O)Nc2ccnc(C(=O)NC3(C#N)CCOCC3)c2)cc1O [Example 12, N-(4-Cyanotetrahydropyran-4-yl)-4-[[2-[2-fluoro-5-hydroxy-4-(2-hydroxy-1,1-dimethyl-ethyl)phenyl]acetyl]amino]pyridine-2-carboxamide]",150,118
"CC(O)(c1cc(F)c(CC(=O)Nc2ccnc(C(=O)NC3(C(F)(F)F)CC3)c2)cc1O)C1CC1 (stereo not drawn) [Example 2.8, 4-[[2-[4-(1-Cyclopropyl-1-hydroxy-ethyl)-2-fluoro-5-hydroxy-phenyl]acetyl]amino]-N-[1-(trifluoromethyl)cyclopropyl]pyridine-2-carboxamide]",302,77
"O=C(Cc1cc(O)c(C2(CO)CC2)cc1F)Nc1ccnc(C(=O)NC2(C(F)(F)F)CC2)c1 [Example 2.16, 4-[[2-[2-Fluoro-5-hydroxy-4-[1-(hydroxymethyl)cyclopropyl]phenyl]acetyl]amino]-N-[1-(trifluoromethyl)cyclopropyl]pyridine-2-carboxamide]",227,76
CC(C#N)(CO)NC(=O)c1cc(NC(=O)Cc2cc(O)c(C(C)(C)C)cc2F)ccn1 (stereo not drawn) [Example 1.6],121,40
"O=C(Cc1cc(O)c(C2(CO)CCOCC2)cc1F)Nc1ccnc(C(=O)NC2(C(F)(F)F)CC2)c1 [Example 2.15, 4-[[2-[2-Fluoro-5-hydroxy-4-[4-(hydroxymethyl)tetrahydropyran-4-yl]phenyl]acetyl]amino]-N-[1-(trifluoromethyl)cyclopropyl]pyridine-2-carboxamide]",413,279
"CC1(NC(=O)c2cc(NC(=O)Cc3cc(O)c(C(C)(C)CO)cc3F)ccn2)CC(F)(F)C1 [Example 15, N-(3,3-Difluoro-1-methyl-cyclobutyl)-4-[[2-[2-fluoro-5-hydroxy-4-(2-hydroxy-1,1-dimethyl-ethyl)phenyl]acetyl]amino]pyridine-2-carboxamide]",113,14
"CC(CO)c1cc(F)c(CC(=O)Nc2ccnc(C(=O)NC3(C(F)(F)F)CC3)c2)cc1O (stereo not drawn) [Example 20, 4-[[2-[2-Fluoro-5-hydroxy-4-(2-hydroxy-1-methyl-ethyl)phenyl]acetyl]amino]-N-[1-(trifluoromethyl)cyclopropyl]pyridine-2-carboxamide]",295,100
"O=C(Cc1cc(O)c(C2(O)CCOCC2)cc1F)Nc1ccnc(C(=O)NC2(C(F)(F)F)CC2)c1 [Example 13, 4-[[2-[2-Fluoro-5-hydroxy-4-(4-hydroxytetrahydropyran-4-yl)phenyl]acetyl]amino]-N-[1-(trifluoromethyl)cyclopropyl]pyridine-2-carboxamide]",196,221
"Cc1cc(C(C)(C)O)c(O)cc1CC(=O)Nc1ccnc(C(=O)NC2(C(F)(F)F)CC2)c1 [Example 2.12, 4-[[2-[5-Hydroxy-4-(1-hydroxy-1-methyl-ethyl)-2-methyl-phenyl]acetyl]amino]-N-[1-(trifluoromethyl)cyclopropyl]pyridine-2-carboxamide]",209,42
"CC(C)(O)c1cc(F)c(CC(=O)Nc2ccnc(C(=O)NC3(C(F)(F)F)CC3)c2)c(Cl)c1O [Example 18, 4-[[2-[2-Chloro-6-fluoro-3-hydroxy-4-(1-hydroxy-1-methyl-ethyl)phenyl]acetyl]amino]-N-[1-(trifluoromethyl)cyclopropyl]pyridine-2-carboxamide]",315,268

# Next, values leading:
activation at 3.33 µM [%],EC50 [nM],SMILES
226,60,"CC(C)(CO)c1cc(F)c(CC(=O)Nc2ccnc(C(=O)NC3(C(F)F)CC3)c2)cc1O [Example 15.4, N-[1-(Difluoromethyl)cyclopropyl]-4-[[2-[2-fluoro-5-hydroxy-4-(2-hydroxy-1,1-dimethyl-ethyl)phenyl]acetyl]amino]pyridine-2-carboxamide]"
214,181,"CC1(NC(=O)c2cc(NC(=O)Cc3cc(O)c(C(C)(C)CO)cc3F)ccn2)CCOCC1 [Example 16.1, 4-[[2-[2-Fluoro-5-hydroxy-4-(2-hydroxy-1,1-dimethyl-ethyl)phenyl]acetyl]amino]-N-(4-methyltetrahydropyran-4-yl)pyridine-2-carboxamide]"
140,407,"CC(CO)c1cc(F)c(CC(=O)Nc2ccnc(C(=O)NC3(C)CCOCC3)c2)cc1O (stereo not drawn) [Example 16.3, 4-[[2-[2-Fluoro-5-hydroxy-4-(2-hydroxy-1-methyl-ethyl)phenyl]acetyl]amino]-N-(4-methyltetrahydropyran-4-yl)pyridine-2-carboxamide]"
342,214,"CC(C)(CO)c1cc(F)c(CC(=O)Nc2ccnc(C(=O)NC3(CO)CCC3)c2)cc1O [Example 12.4, 4-[[2-[2-Fluoro-5-hydroxy-4-(2-hydroxy-1,1-dimethyl-ethyl)phenyl]acetyl]amino]-N-[1-(hydroxymethyl)cyclobutyl]pyridine-2-carboxamide]"
97.2,238,"CC(C)(CO)NC(=O)c1cc(NC(=O)Cc2cc(O)c(C(C)(C)CO)cc2F)ccn1 [Example 12.3, 4-[[2-[2-Fluoro-5-hydroxy-4-(2-hydroxy-1,1-dimethyl-ethyl)phenyl]acetyl]amino]-N-(2-hydroxy-1,1-dimethyl-ethyl)pyridine-2-carboxamide]"
406,52,"CC(C)(CO)c1cc(F)c(CC(=O)Nc2ccnc(C(=O)NC3(C(F)(F)F)COC3)c2)cc1O [Example 12.1, 4-[[2-[2-Fluoro-5-hydroxy-4-(2-hydroxy-1,1-dimethyl-ethyl)phenyl]acetyl]amino]-N-[3-(trifluoromethyl)oxetan-3-yl]pyridine-2-carboxamide]"
